Results reported in US8173665B2, “I-pheny 1-3,4-dihydropyrimidin-2(1H)-one derivatives and their use” (Bayer Pharma Aktiengesellschaft, priority 2002, dated 2012).

Tested on: human polymorphonuclear cells (PMNs)
Assay: In vitro PMN elastolysis assay (3H-elastin)
Format: cell-based
Settings: at 1.2 μM; n=3 different donors at 3.6×10^5 cells per well
Description: In Vitro PMN Elastolysis Assay
This assay is used to determine the elastolytic potential of human polymorphonuclear cells (PMNs) and assess the proportion of degradation due to neutrophil elastase [cf. Z. W. She et al., Am. J. Respir. Cell. Mol. Biol. 9, 386-392 (1993)].
Tritiated elastin, in suspension, is coated on to a 96 well plate at 10 μg per well. Test and reference [ZD-0892 (J. Med. Chem. 40, 1876-1885, 3173-3181 (1997), WO 95/21855) and α1 protease inhibitor (α1PI)] compounds are added to the wells at the appropriate concentrations. Human PMNs are separated from peripheral venous blood of healthy donors and resuspended in culture media. The neutrophils are added to the coated wells at concentrations ranging between 1×10^6 to 1×10^5 cells per well. Porcine pancreatic elastase (1.3 μM) is used as a positive control for the assay, and α1PI (1.2 μM) is used as the positive inhibitor of neutrophil elastase. The cellular control is PMNs without compound at each appropriate cell density. The cells plus compounds are incubated in a humidified incubator at 37° C. for 4 hours. The plates are centrifuged to allow the harvest of cell supernatant only. […] The plates are dried until no liquid is visible in the wells and read in a beta counter for 3 minutes per well. […]
The compounds of this invention are evaluated for their inhibitory activity in this HNE-dependent model of neutrophil elastolysis.

Compound	inhibition of elastolysis (mean±s.e.m.) [%]
α1PI: α1 protease inhibitor, used as the positive inhibitor of neutrophil elastase	83.46±3.97

Same assay, conditions: n=2 different donors at 3.6×10^5 cells per well; read-out: IC50 (mean±s.e.m.)

IC50 [nM]	Compound
45.5 ± 7.75	COc1ccc(C(=O)N[C@H](C(=O)N2CCC[C@H]2C(=O)N[C@H](C(=O)C(F)(F)F)C(C)C)C(C)C)cc1 [ZD-0892]

Molecular target: T1, human neutrophil elastase (HNE) (Homo sapiens, UniProt P08246)
T1 construct: purchased SERVA Electrophoresis GmbH, Heidelberg, Germany #20927.01
T1 sequence (P08246 30-267): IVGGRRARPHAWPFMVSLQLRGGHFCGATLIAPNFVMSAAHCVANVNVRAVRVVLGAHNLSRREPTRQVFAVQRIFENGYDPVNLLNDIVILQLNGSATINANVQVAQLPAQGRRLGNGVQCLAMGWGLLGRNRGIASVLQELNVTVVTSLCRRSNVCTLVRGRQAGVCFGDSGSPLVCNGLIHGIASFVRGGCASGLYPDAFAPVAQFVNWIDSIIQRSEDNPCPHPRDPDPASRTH
Assay: In vitro inhibition of HNE using a fluorogenic peptide substrate (MeOSuc-Ala-Ala-Pro-Val-AMC)
Format: biochemical
Settings: 384 MTP format
Description: I. In Vitro Enzyme Assays of Human Neutrophil Elastase (HNE) assay buffer: 0.1 M HEPES-NaOH buffer pH 7.4, 0.5 M NaCl, 0.1% (w/v) bovine serum albumin; suitable concentration (see below) of HNE (18 U/mg lyophil., #20927.01, SERVA Electrophoresis GmbH, Heidelberg, Germany) in assay buffer; suitable concentration (see below) of substrate in assay buffer; suitable concentration of test compounds diluted with assay buffer from a 10 mM stock solution in DMSO.
In Vitro Inhibition of HNE Using a Fluorogenic Peptide Substrate
Continuous Read-Out Signal, 384 MTP Assay Format
In this protocol, the elastase substrate MeOSuc-Ala-Ala-Pro-Val-AMC (#324740, Calbiochem-Novabiochem Corporation, Merck KGaA, Darmstadt, Germany) is used. The test solution is prepared by mixing 10 μl of test compound dilution, 20 μl of HNE enzyme dilution (final concentration 8-0.4 μU/ml, routinely 2.1 μU/ml) and 20 μl of substrate dilution (final concentration 1 mM-1 μM, routinely 20 μM), respectively. The solution is incubated for 0-2 hrs at 37° C. (routinely one hour). The fluorescence of the liberated AMC due to the enzymatic reaction is measured at 37° C. (TECAN spectra fluor plus plate reader). The rate of increase of the fluorescence (ex. 395 nm, em. 460 nm) is proportional to elastase activity. IC50 values are determined by RFU-versus-[I] plots. Km and Km(app.) values are determined by Lineweaver-Burk plots and converted to Ki values by Dixon plots.

Compound	IC50 [nM]
CC(=O)C1=C(C)N(c2cccc(C(F)(F)F)c2)C(=S)NC1c1ccc(C#N)cc1 (stereo not shown) [Example 1, 4-{5-Acetyl-6-methyl-2-thioxo-1-[3-(trifluoromethyl)phenyl]-1,2,3,4-tetrahydro-4-pyrimidinyl}benzonitrile]	13
CCOC(=O)C1=C(C)N(c2cccc(C(F)(F)F)c2)C(=S)NC1c1ccc(C#N)cc1 (stereo not shown) [Example 3, Ethyl 4-(4-cyanophenyl)-6-methyl-2-thioxo-1-[3-(trifluoromethyl)phenyl]-1,2,3,4-tetrahydro-5-pyrimidinecarboxylate]	9
CC1=C(C(N)=O)C(c2ccc(C#N)cc2)NC(=S)N1c1cccc(C(F)(F)F)c1 (stereo not shown) [Example 4, 4-(4-Cyanophenyl)-6-methyl-2-thioxo-1-[3-(trifluoromethyl)phenyl]-1,2,3,4-tetrahydro-5-pyrimidinecarboxamide]	23
CC1=C(C(=O)N(C)C)C(c2ccc(C#N)cc2)NC(=S)N1c1cccc(C(F)(F)F)c1 (stereo not shown) [Example 6, 4-(4-Cyanophenyl)-N,N,6-trimethyl-2-thioxo-1-[3-(trifluoromethyl)phenyl]-1,2,3,4-tetrahydro-5-pyrimidinecarboxamide]	70
CC1=C(C(=O)O)C(c2ccc(C#N)cc2)NC(=S)N1c1cccc(C(F)(F)F)c1 (stereo not shown) [Example 19, 4-(4-Cyanophenyl)-6-methyl-2-thioxo-1-[3-(trifluoromethyl)phenyl]-1,2,3,4-tetrahydropyrimidine-5-carboxylic acid]	30
CCOC(=O)C1=C(C)N(c2cccc(C(F)(F)F)c2)C(=S)N(C(=O)C2CCC2)C1c1ccc(C#N)cc1 (stereo not shown) [Example 29]	10
CCOC(=O)C1=C(C)N(c2cccc(C(F)(F)F)c2)C(SC)=NC1c1ccc(C#N)cc1C (stereo not shown) [Example 31, Ethyl 4-(4-cyano-2-methylphenyl)-6-methyl-2-(methylsulfanyl)-1-[3-(trifluoromethyl)phenyl]-1,4-dihydro-5-pyrimidinecarboxylate]	80
CCOC(=O)C1=C(C)N(c2cccc(Cl)c2)C(SCCCOC(N)=O)=NC1c1ccc(C#N)cc1 (stereo not shown) [Example 33]	20

More lines, now with the values ahead:

IC50 [nM]	Compound
10	CCOC(=O)C1=C(C)N(c2cccc(C(F)(F)F)c2)C(SC)=NC1c1ccc(C#N)cc1 (stereo not shown) [Example 7]
40	CCOC(=O)C1=C(C)N(c2cccc(C(F)(F)F)c2)C(SCC)=NC1c1ccc(C#N)cc1 (stereo not shown) [Example 9]
100	CCOC(=O)C1=C(C)N(c2cccc(C(F)(F)F)c2)C(SCc2ccncc2)=NC1c1ccc(C#N)cc1 (stereo not shown) [Example 12, Ethyl 4-(4-cyanophenyl)-6-methyl-2-[(4-pyridinylmethyl)sulfanyl]-1-[3-(trifluoromethyl)phenyl]-1,4-dihydro-5-pyrimidinecarboxylate]
10	CCOC(=O)C1=C(C)N(c2cccc(C(F)(F)F)c2)C(SCCN(CC)CC)=NC1c1ccc(C#N)cc1 (stereo not shown) [Example 14, Ethyl 4-(4-cyanophenyl)-2-{[2-(diethylamino)ethyl]sulfanyl}-6-methyl-1-[3-(trifluoromethyl)phenyl]-1,4-dihydro-5-pyrimidinecarboxylate]
5	CCOC(=O)C1=C(C)N(c2cccc(C(F)(F)F)c2)C(SCc2ncc[nH]2)=NC1c1ccc(C#N)cc1 (stereo not shown) [Example 15, Ethyl 4-(4-cyanophenyl)-2-[(1H-imidazol-2-ylmethyl)sulfanyl]-6-methyl-1-[3-(trifluoromethyl)phenyl]-1,4-dihydro-5-pyrimidinecarboxylate]
12	CCN(CC)CCOC(=O)C1=C(C)N(c2cccc(C(F)(F)F)c2)C(SC)=NC1c1ccc(C#N)cc1 (stereo not shown) [Example 58, 2-(Diethylamino)ethyl 4-(4-cyanophenyl)-6-methyl-2-(methylsulfanyl)-1-[3-(trifluoromethyl)phenyl]-1,4-dihydro-5-pyrimidinecarboxylate]
